Reference: a compilation of properties of binary mixtures (doi:10.1016/j.molliq.2016.04.040)

Assay: xn = mol fraction of the nth substance listed
Details: 100 kPa

CC(=O)[O-].CCC[NH3+] + O
speed of sound [m/s]
Details | 293.15 K | 298.15 K | 303.15 K | 308.15 K | 313.15 K | 318.15 K | 323.15 K | 328.15 K | 333.15 K
x2 = 0 | 1504.2 | 1490.7 | 1476.6 | 1461.9 | 1447.5 | 1433.3 | – | 1405.6 | 1391.1
x2 = 0.05 | 1506.6 | 1493.5 | 1478.6 | 1464 | 1449.1 | 1434.5 | 1420.4 | 1406.6 | 1392.6
x2 = 0.0978 | 1509.6 | 1495.7 | – | 1466.8 | 1451.7 | 1436.1 | – | 1407.6 | 1393.3
x2 = 0.1978 | – | – | 1485.6 | – | – | 1439.8 | 1424.3 | – | 1395.1
x2 = 0.3095 | – | 1506.4 | 1491.6 | 1474.8 | 1459.3 | – | 1428 | 1413.1 | 1397.7
x2 = 0.3891 | 1527.5 | 1511.4 | 1495.3 | 1479 | 1462.8 | 1446.7 | 1430.3 | 1414.7 | 1399.2
x2 = 0.4931 | – | 1517 | 1500.3 | – | – | – | 1433.2 | 1417.5 | –
x2 = 0.599 | 1539.9 | 1521.9 | 1505.3 | 1488.3 | 1471.5 | – | 1436.8 | 1420.2 | 1402.8
x2 = 0.7001 | 1545.8 | 1527.3 | 1510 | 1492 | 1474.8 | 1457.5 | 1439.8 | 1422.2 | 1405.1
x2 = 0.7998 | 1552.5 | – | – | 1497.2 | 1478.8 | 1461.4 | – | 1424.9 | 1407.8
x2 = 0.891 | – | 1538.6 | 1519.6 | 1501.1 | 1482.7 | 1463.9 | – | – | 1409

CCC[NH3+].O=C[O-] + O
speed of sound [m/s]
Details | 293.15 K | 298.15 K | 303.15 K | 308.15 K | 313.15 K | 318.15 K | 323.15 K | 328.15 K | 333.15 K
x2 = 0 | 1552 | 1540.7 | 1530.2 | – | 1509.5 | 1499.2 | 1489.1 | 1479 | 1469
x2 = 0.0505 | 1557.1 | 1546.6 | 1536.1 | 1525.7 | 1515.4 | – | 1495.1 | 1485 | 1474.9
x2 = 0.1036 | 1565.1 | 1554.7 | 1544.2 | 1533.9 | 1523.7 | 1513.5 | 1503.4 | 1493.4 | 1483.2
x2 = 0.2456 | 1588.7 | 1578.5 | 1568.5 | – | 1548.1 | 1538 | 1528 | – | –
x2 = 0.2838 | – | 1585.9 | 1575.7 | 1565.6 | – | 1545.4 | – | 1525.4 | –
x2 = 0.429 | 1615.5 | 1605.7 | – | – | 1575.8 | 1566 | 1556 | 1546.1 | 1536
x2 = 0.5184 | 1632.4 | – | 1612.8 | 1603 | 1593 | 1583.1 | 1573.2 | 1563.3 | –
x2 = 0.6064 | – | – | 1635.4 | 1625.7 | 1616 | 1606.2 | 1596.4 | – | 1576.6
x2 = 0.6994 | 1687.5 | 1678.4 | 1669.2 | 1659.9 | 1650.5 | 1641 | 1631.5 | 1621.8 | 1611.9
x2 = 0.8008 | 1727.2 | 1719.4 | 1711.3 | – | 1694.3 | – | 1676.4 | 1666.8 | 1657.3
x2 = 0.9026 | 1730 | 1725.8 | – | 1716.1 | 1710.7 | 1704.7 | 1698.3 | 1691.5 | 1684.3

CCC[NH3+].O=C[O-] + CN1CCCC1=O
speed of sound [m/s]
Details | 293.15 K | 298.15 K | 303.15 K | 308.15 K | 313.15 K | 318.15 K | 323.15 K | 328.15 K | 333.15 K
x2 = 0 | – | 1540.7 | – | 1519.8 | 1509.5 | 1499.2 | 1489.1 | 1479 | 1469
x2 = 0.0494 | 1556.8 | 1546 | 1535.1 | – | 1513.7 | 1503.1 | – | 1482 | 1471.6
x2 = 0.1047 | 1557.7 | 1546.3 | 1534.9 | 1523.6 | – | 1501.3 | 1490.2 | 1479.3 | 1468.4
x2 = 0.1953 | 1559.5 | 1547.5 | 1535.4 | 1523.3 | 1511.4 | 1499.5 | 1487.7 | 1475.9 | 1464.2
x2 = 0.3021 | – | 1547.4 | 1534.2 | – | 1508.1 | 1495.2 | 1482.3 | 1469.4 | 1456.6
x2 = 0.4205 | 1563.9 | – | – | 1520.9 | 1506.7 | 1492.6 | 1478.5 | 1464.5 | 1450.5
x2 = 0.5063 | 1566 | 1550.9 | 1535.7 | 1520.7 | 1505.7 | – | 1475.9 | 1461.1 | 1446.3
x2 = 0.6001 | 1565.4 | 1549.7 | 1533.7 | 1517.8 | 1501.9 | 1486.2 | – | – | 1439.1
x2 = 0.7075 | 1565 | 1548.1 | 1531.2 | 1514.3 | 1497.6 | 1480.9 | 1464.2 | 1447.5 | –
x2 = 0.7986 | – | – | 1529.2 | 1511.6 | – | 1476.8 | 1459.5 | 1442.2 | –
x2 = 0.9048 | – | 1545.7 | 1527.6 | – | 1491.4 | 1473.5 | 1455.7 | 1438 | 1420.3

CC(=O)[O-].CCC[NH3+] + CN1CCCC1=O
speed of sound [m/s]
Details | 293.15 K | 298.15 K | 303.15 K | 308.15 K | 313.15 K | 318.15 K | 323.15 K | 328.15 K | 333.15 K
x2 = 0 | 1504.2 | 1490.7 | – | 1461.9 | 1447.5 | – | – | 1405.6 | –
x2 = 0.05 | 1506.6 | 1493.5 | – | 1464 | – | 1434.5 | 1420.4 | 1406.6 | 1392.6
x2 = 0.0978 | 1509.6 | 1495.7 | 1481.1 | 1466.8 | 1451.7 | 1436.1 | 1421.4 | 1407.6 | 1393.3
x2 = 0.1978 | 1515 | 1501 | 1485.6 | 1471.1 | – | 1439.8 | 1424.3 | 1410 | 1395.1
x2 = 0.3095 | 1522.4 | 1506.4 | 1491.6 | 1474.8 | 1459.3 | – | – | 1413.1 | 1397.7
x2 = 0.3891 | 1527.5 | 1511.4 | 1495.3 | 1479 | 1462.8 | 1446.7 | – | – | 1399.2
x2 = 0.4931 | 1533.3 | 1517 | 1500.3 | 1484.2 | 1467.1 | 1451.1 | 1433.2 | 1417.5 | 1401.1
x2 = 0.599 | 1539.9 | 1521.9 | – | 1488.3 | 1471.5 | 1453.8 | 1436.8 | 1420.2 | –
x2 = 0.7001 | 1545.8 | 1527.3 | – | 1492 | 1474.8 | – | 1439.8 | 1422.2 | 1405.1
x2 = 0.7998 | – | 1533.1 | 1515.2 | 1497.2 | – | 1461.4 | – | – | 1407.8
x2 = 0.891 | – | 1538.6 | 1519.6 | 1501.1 | 1482.7 | 1463.9 | 1445.1 | 1427.5 | 1409
